In assay [1] the target is POP (prolyloligopeptidase) (Homo sapiens, UniProt P48147). The assay can be described thus: POP inhibition assay. Format: biochemical. As to conditions: bounds marked f: highest tested concentration due to low solubility in buffer; read-out: IC50, POP ± SEM. As to the method:
The previously applied procedure was used. Detailed description of the assay can be found in Supplementary Materials.
POP (EC 3.4.21.26) was dissolved in phosphate-buffered saline (PBS; 0.01 M Na/K phosphate buffer, […]
The assay was performed in standard polystyrene 96-well microplates with a flat and clear bottom.
Stock solutions of tested compounds were prepared in DMSO (10 mM). Dilutions (10−3 to 10−7 M) were prepared from the stock solution with deionized H2O; the control was performed with the same DMSO concentration. POP substrate, (Z)-Gly-Pro-p-nitroanilide, was dissolved in 50% 1,4-dioxane (5 mM). For each reaction, PBS (170 μL), tested compound (5 μL), and POP (5 μL) were incubated for 5 min at 37 °C. Then, substrate (20 μL) was added, and the microplate was incubated for 30 min at 37 °C. The formation of p-nitroanilide, directly proportional to the POP activity, was measured […]
Synergy 2, BioTek Instruments, Winooski, VT). The inhibition potency of tested compounds was calculated by nonlinear regression analysis and was expressed as an IC50 value (concentration of inhibitor which causes 50% POP inhibition). […]

The next assay deals with T1, hBuChE (Homo sapiens, UniProt P06276).
T1 construct: was used as a source of BChE and was prepared from heparinized human blood; from tissue; host or cells: human plasma from heparinized human blood
The assay can be described thus: Kinetic study of hBuChE inhibition. It is filed as biochemical. As to the method: Compound 6, the derivative with the most robust inhibitory activity, was subjected to enzyme kinetics analysis to determine the mode of hBuChE inhibition. Inhibition kinetics were elucidated from velocity curves that were measured at several concentrations of substrate butyrylthiocholine and test compound. The type of enzyme inhibition and corresponding kinetic parameters (Ki and Ki′) were determined by nonlinear regression analysis. Results for each type of model of inhibition (competitive, non-competitive, uncompetitive, and mixed) were compared by the sum-of-squares F-test. […].
Kinetic studies employed the same procedure that was previously described. Supplementary Materials provides details of this assay.
Biological assays in detail hAChE and hBuChE Inhibition Assay
The inhibitory activities of prepared compounds and standards against human recombinant AChE (E.C.
3.1.1.7) and human plasma BChE (E.C. 3.1.1.8) were determined using modified Ellman’s method […]
cholinesterase activity). Human recombinant AChE, phosphate buffer (PB, pH = 7.4), 5,5’ -dithio-bis(2-nitrobenzoic) acid (Ellman’s reagent, DTNB), acetylthiocholine (ATCh), butyrylthiocholine (BTCh), and other used compounds were purchased from Sigma-Aldrich (Prague, Czech Republic). […]
The solutions of she corresponding cholinesterase in PB were prepared up to the final activity 0.002 U/µL. […] The increase of absorbance was measured at 412 nm using Multimode microplate reader Synergy 2 (BioTek Inc., Winooski, VT, USA). For the calculation of the resulting measured activity (the percentage of inhibition I) following formula was used: […]
where ΔAi indicates absorbance change provided by adequate enzyme exposed to corresponding inhibitor and ΔA0 indicates absorbance change when a solution of PB was added instead of a solution of inhibitor. […]
The kinetic study hBuChE was performed by using above mentioned modified Ellman’s method. The values of Vmax and Km of the Michaelis-Menten kinetics as well as the values of Ki and Ki’ were calculated by nonlinear regression from the substrate velocity curves. […]

Sequence of POP (prolyloligopeptidase) (P48147 whole entry): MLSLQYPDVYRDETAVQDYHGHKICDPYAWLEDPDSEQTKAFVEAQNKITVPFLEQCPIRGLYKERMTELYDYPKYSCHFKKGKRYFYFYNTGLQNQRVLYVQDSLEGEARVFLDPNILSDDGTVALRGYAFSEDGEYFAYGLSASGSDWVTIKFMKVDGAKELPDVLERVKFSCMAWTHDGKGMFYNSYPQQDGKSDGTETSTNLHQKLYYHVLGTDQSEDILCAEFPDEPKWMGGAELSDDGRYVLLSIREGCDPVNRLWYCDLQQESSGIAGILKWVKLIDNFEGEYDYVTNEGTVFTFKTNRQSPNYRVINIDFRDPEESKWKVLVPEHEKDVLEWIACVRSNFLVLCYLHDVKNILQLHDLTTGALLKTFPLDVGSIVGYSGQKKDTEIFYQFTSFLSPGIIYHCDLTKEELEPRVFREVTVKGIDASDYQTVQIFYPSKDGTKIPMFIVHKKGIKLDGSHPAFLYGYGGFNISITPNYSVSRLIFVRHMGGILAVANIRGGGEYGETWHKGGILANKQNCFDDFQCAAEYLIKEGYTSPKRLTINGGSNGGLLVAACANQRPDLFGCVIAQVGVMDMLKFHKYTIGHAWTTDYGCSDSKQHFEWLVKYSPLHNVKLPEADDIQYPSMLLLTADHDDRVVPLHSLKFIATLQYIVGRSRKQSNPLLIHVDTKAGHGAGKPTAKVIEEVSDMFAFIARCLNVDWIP

The term IC50 denotes the concentration that gives 50% inhibition. For orientation: Ki means the dissociation constant of the complex between target and ligand, obtained from inhibition or displacement. As to `C=CCOc1ccc(CCN(CC=C)Cc2ccc(OC)c(OCc3ccccc3)c2)cc1` [Compound 6, N-allyl-N-(3-benzyloxy-4-methoxybenzyl)-2-(4-allyloxyphenyl)ethan-1-amine], in assay [1], the IC50 was more than 79000 nM. The “Ki′” value on hBuChE (hBuChE, enzyme-substrate complex, nonlinear regression) was determined as 347 ± 79 nM. For the same molecule, the Ki at hBuChE (hBuChE, substrate butyrylthiocholine, nonlinear regression) was 60.3 ± 11.6 nM. The “type of hBuChE inhibition” value at hBuChE (sum-of-squares F-test, p < 0.05, Lineweaver–Burk plot) was “mixed type of inhibition”.

Source of the values: publication PMC8348983 (International Journal of Molecular Sciences, 2021).
